Data as given in ChEMBL document CHEMBL4312007, “First synthesis of merged hybrids phosphorylated azirino[2,1-b]benzo[e][1,3]oxazine derivatives as anticancer agents” (Eur J Med Chem, 2020).

What was measured:
[1] = test system: MRC5; experiment: Cytotoxicity against human MRC5 cells assessed as reduction in cell growth incubated for 48 hrs by CCK8 assay; type: cell-based; settings: MRC5, 48 h
[2] = test system: A549; experiment: Antiproliferative activity against human A549 cells assessed as inhibition of cell growth incubated for 48 hrs by CCK8 assay; type: functional, cell-based; settings: A549, 48 h
[3] = test system: HEK293; experiment: Antiproliferative activity against HEK293 cells assessed as inhibition of cell growth incubated for 48 hrs by CCK8 assay; type: functional, cell-based; settings: Homo sapiens, HEK293, 48 h

| Structure (SMILES) | IC50 [1] | IC50 [2] | IC50 [3] |
| --- | --- | --- | --- |
| COc1cccc2c1O[C@@]1(C)[C@H](P(=O)(c3ccccc3)c3ccccc3)N1[C@H]2O (relative stereo) | > 50 µM | 1.3 µM | > 50 µM |
| C[C@@]12Oc3ccc(F)cc3[C@H](O)N1[C@H]2P(=O)(c1ccccc1)c1ccccc1 (relative stereo) | > 50 µM | 19.6 µM | > 50 µM |
| CC[C@@]12Oc3ccc(C)cc3[C@H](O)N1[C@H]2P(=O)(c1ccccc1)c1ccccc1 (relative stereo) | > 50 µM | 12.9 µM | > 50 µM |
| Cc1ccc2c(c1)[C@H](O)N1[C@@H](P(=O)(c3ccccc3)c3ccccc3)[C@]1(C)O2 (relative stereo) | > 50 µM | 3.2 µM | > 50 µM |
| CC(C)OP(=O)(OC(C)C)[C@@H]1N2[C@@H](O)c3ccccc3O[C@@]12C (relative stereo) | > 50 µM | 3 µM | > 50 µM |
| CC[C@@]12Oc3c(OC)cccc3[C@H](O)N1[C@H]2P(=O)(c1ccccc1)c1ccccc1 (relative stereo) | > 50 µM | 20.7 µM | > 50 µM |
| CC[C@@]12Oc3ccccc3[C@](C)(O)N1[C@H]2P(=O)(c1ccccc1)c1ccccc1 (relative stereo) | > 50 µM | 3.2 µM | > 50 µM |
| C[C@]1(O)c2ccccc2O[C@@]2(C)[C@H](P(=O)(c3ccccc3)c3ccccc3)N12 (relative stereo) | > 50 µM | 21.1 µM | > 50 µM |
| CC(C)OP(=O)(OC(C)C)[C@@H]1N2[C@@](C)(O)c3ccccc3O[C@@]12C (relative stereo) | > 50 µM | 10.3 µM | > 50 µM |
| CCOP(=O)(OCC)[C@@H]1N2[C@@H](O)c3ccccc3O[C@@]12C (relative stereo) | > 50 µM | 15.8 µM | – |
| C[C@@]12Oc3ccccc3[C@H](O)N1[C@H]2P(=O)(c1ccccc1)c1ccccc1 (relative stereo) | > 50 µM | 2.7 µM | > 50 µM |
| CC[C@@]12Oc3ccccc3[C@H](O)N1[C@H]2P(=O)(c1ccccc1)c1ccccc1 (relative stereo) | > 50 µM | 10.4 µM | > 50 µM |
| COc1cccc2c1C(=O)c1c(O)c3c(c(O)c1C2=O)C[C@@](O)(C(=O)CO)C[C@@H]3O[C@H]1C[C@H](N)[C@H](O)[C@H](C)O1 [DOXORUBICIN] | > 50 µM | – | 5.68 µM |
